# In patent US20230077362A1 (CORTEVA AGRISCIENCE LLC, priority 2019, published 2023):
# Tests used:
# [1] = test system: Beet Armyworm (Spodoptera exigua) ("BAW"), second instar larvae; assay: Bioassay on beet armyworm (BAW), 128-well diet tray assay; format: in vivo; conditions: for BAW rating: Table ABC, species BAW, C = not tested, D = no activity noticed; for pest or weed control at 50 µg/cm2: Spodoptera exigua, read-out: BAW rating
# Outline: (§1)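 Covered trays were held at 25° C. under a 14:10 light-dark cycle for five to seven days. Percent mortality was then scored in each well, and activity across eight wells was averaged.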
# [2] = test system: Cabbage Looper (Trichoplusia ni) ("CL"), second instar larvae; assay: Bioassay on cabbage looper (CL), 128-well diet tray assay; format: in vivo; conditions: for CL rating: Table ABC, species CL, C = not tested, D = no activity noticed; for pest or weed control at 50 µg/cm2: Trichoplusia ni, read-out: CL rating
# Outline: as §1
SMILES,BAW rating [1],CL rating [2],pest or weed control at 50 µg/cm2 [1] [%],pest or weed control at 50 µg/cm2 [2] [%]
Cc1ccc(COCC(F)(F)F)c(N2C(=O)CS/C2=N\C(=O)Nc2ccc(-c3ncn(-c4ccc(OC(F)(F)F)cc4)n3)cc2F)c1C [Compound J678],A (50-100),A (50-100),,
Cc1cc(-c2ncn(-c3ccc(OC(F)(F)F)cc3)n2)ccc1NC(=O)/N=C1\SCC(=O)N1c1c(COCC(F)(F)F)ccc(C)c1C [Compound J679],A (50-100),A (50-100),,
Cc1ccc(COCC(F)(F)F)c(N2C(=O)CS/C2=N\C(=O)Nc2ccc(-c3ncn(-c4ccc(C(F)(F)F)cc4)n3)cc2F)c1C [Compound J680],A (50-100),A (50-100),,
Cc1ccc(COCC(F)(F)F)c(N2C(=O)CS/C2=N\C(=O)Nc2ccc(-c3ncn(-c4ccc(OC(F)(F)C(F)(F)F)cc4)n3)cc2C)c1 [Compound J681],A (50-100),A (50-100),,
Cc1cc(-c2ncn(-c3ccc(OC(F)(F)C(F)(F)F)cc3)n2)ccc1NC(=O)/N=C1\SCC(=O)N1c1cccc(C)c1COCC(F)(F)F [Compound J682],A (50-100),A (50-100),,
"Cc1ccc(Cc2ccc(F)cc2)c(N2C(=O)CS/C2=N\C(=O)Nc2ccc(-c3ncn(-c4ccc(S(F)(F)(F)(F)F)cc4)n3)cc2C#N)c1 [Compound J683, (Z)-1-(2-Cyano-4-(1-(4-(pentafluoro-λ^6-sulfaneyl)phenyl)-1H-1,2,4-triazol-3-yl)phenyl)-3-(3-(2-(4-fluorobenzyl)-5-methylphenyl)-4-oxothiazolidin-2-ylidene)urea]",,,50 to 100,50 to 100
"COC(C)c1ccc(C)cc1N1C(=O)CS/C1=N\C(=O)Nc1ccc(-n2cnc(-c3ccc(OC(F)(F)F)cc3)n2)cc1F (stereo not shown) [Compound J685, (Z)-1-(2-Fluoro-4-(3-(4-(trifluoromethoxy)phenyl)-1H-1,2,4-triazol-1-yl)phenyl)-3-(3-(2-(1-methoxyethyl)-5-methylphenyl)-4-oxothiazolidin-2-ylidene)urea]",,,50 to 100,50 to 100
"COC(c1ccc(C)cc1N1C(=O)CS/C1=N\C(=O)Nc1ccc(-n2cnc(-c3ccc(OC(F)(F)F)cc3)n2)cc1F)C(F)(F)F (stereo not shown) [Compound J687, (Z)-1-(2-Fluoro-4-(3-(4-(trifluoromethoxy)phenyl)-1H-1,2,4-triazol-1-yl)phenyl)-3-(3-(5-methyl-2-(2,2,2-trifluoro-1-methoxyethyl)phenyl)-4-oxothiazolidin-2-ylidene)urea]",,,50 to 100,50 to 100
"CN(C)c1ccc(OCC(F)(F)F)c(N2C(=O)CS/C2=N\C(=O)Nc2ccc(-n3cnc(-c4ccc(OC(F)(F)F)cc4)n3)cc2F)c1 [Compound J688, (Z)-1-(3-(5-(Dimethylamino)-2-(2,2,2-trifluoroethoxy)phenyl)-4-oxothiazolidin-2-ylidene)-3-(2-fluoro-4-(3-(4-(trifluoromethoxy)phenyl)-1H-1,2,4-triazol-1-yl)phenyl)urea]",,,50 to 100,50 to 100
"Cc1ccc(COCC(F)(F)F)c(N2C(=O)CS/C2=N\C(=O)Nc2ccc(-n3cnc(-c4ccc(OC(F)(F)F)cc4)n3)cc2F)c1 [Compound J689, (Z)-1-(2-Fluoro-4-(3-(4-(trifluoromethoxy)phenyl)-1H-1,2,4-triazol-1-yl)phenyl)-3-(3-(5-methyl-2-((2,2,2-trifluoroethoxy)methyl)phenyl)-4-oxothiazolidin-2-ylidene)urea]",,,50 to 100,50 to 100
"O=C(/N=C1\SCC(=O)N1c1cc(F)ccc1COCC(F)(F)F)Nc1ccc(-n2cnc(-c3ccc(OC(F)(F)F)cc3)n2)cc1F [Compound J690, (Z)-1-(3-(5-Fluoro-2-((2,2,2-trifluoroethoxy)methyl)phenyl)-4-oxothiazolidin-2-ylidene)-3-(2-fluoro-4-(3-(4-(trifluoromethoxy)phenyl)-1H-1,2,4-triazol-1-yl)phenyl)urea]",,,50 to 100,50 to 100
"COc1ccc(COCC(F)(F)F)c(N2C(=O)CS/C2=N\C(=O)Nc2ccc(-n3cnc(-c4ccc(OC(F)(F)F)cc4)n3)cc2F)c1 [Compound J691, (Z)-1-(2-Fluoro-4-(3-(4-(trifluoromethoxy)phenyl)-1H-1,2,4-triazol-1-yl)phenyl)-3-(3-(5-methoxy-2-((2,2,2-trifluoroethoxy)methyl)phenyl)-4-oxothiazolidin-2-ylidene)urea]",,,50 to 100,50 to 100
"Cc1ccc(COCC(F)F)c(N2C(=O)CS/C2=N\C(=O)Nc2ccc(-n3cnc(-c4ccc(OC(F)(F)F)cc4)n3)cc2F)c1 [Compound J692, (Z)-1-(3-(2-((2,2-Difluoroethoxy)methyl)-5-methylphenyl)-4-oxothiazolidin-2-ylidene)-3-(2-fluoro-4-(3-(4-(trifluoromethoxy)phenyl)-1H-1,2,4-triazol-1-yl)phenyl)urea]",,,50 to 100,50 to 100
"Cc1ccc(OCCC(F)(F)F)c(N2C(=O)CS/C2=N\C(=O)Nc2ccc(-n3cnc(-c4ccc(OC(F)(F)F)cc4)n3)cc2F)c1 [Compound J693, (Z)-1-(2-Fluoro-4-(3-(4-(trifluoromethoxy)phenyl)-1H-1,2,4-triazol-1-yl)phenyl)-3-(3-(5-methyl-2-(3,3,3-trifluoropropoxy)phenyl)-4-oxothiazolidin-2-ylidene)urea]",,,50 to 100,50 to 100
"Cc1ccc(C(C)C)c(N2C(=O)CS/C2=N\C(=O)Nc2ccc(-n3cnc(-c4ccc(C(F)(F)F)cc4)n3)cc2F)c1 [Compound J694, (Z)-1-(2-Fluoro-4-(3-(4-(trifluoromethyl)phenyl)-1H-1,2,4-triazol-1-yl)phenyl)-3-(3-(2-isopropyl-5-methylphenyl)-4-oxothiazolidin-2-ylidene)urea]",,,50 to 100,50 to 100
"COC(C)c1ccc(C)cc1N1C(=O)CS/C1=N\C(=O)Nc1ccc(-n2cnc(-c3ccc(C(F)(F)F)cc3)n2)cc1F (stereo not shown) [Compound J695, (Z)-1-(2-Fluoro-4-(3-(4-(trifluoromethyl)phenyl)-1H-1,2,4-triazol-1-yl)phenyl)-3-(3-(2-(1-methoxyethyl)-5-methylphenyl)-4-oxothiazolidin-2-ylidene)urea]",,,50 to 100,50 to 100
"COC(c1ccc(C)cc1N1C(=O)CS/C1=N\C(=O)Nc1ccc(-n2cnc(-c3ccc(C(F)(F)F)cc3)n2)cc1F)C(F)(F)F (stereo not shown) [Compound J696, (Z)-1-(2-Fluoro-4-(3-(4-(trifluoromethyl)phenyl)-1H-1,2,4-triazol-1-yl)phenyl)-3-(3-(5-methyl-2-(2,2,2-trifluoro-1-methoxyethyl)phenyl)-4-oxothiazolidin-2-ylidene)urea]",,,50 to 100,50 to 100
"CN(C)c1ccc(OCC(F)(F)F)c(N2C(=O)CS/C2=N\C(=O)Nc2ccc(-n3cnc(-c4ccc(C(F)(F)F)cc4)n3)cc2F)c1 [Compound J697, (Z)-1-(3-(5-(Dimethylamino)-2-(2,2,2-trifluoroethoxy)phenyl)-4-oxothiazolidin-2-ylidene)-3-(2-fluoro-4-(3-(4-(trifluoromethyl)phenyl)-1H-1,2,4-triazol-1-yl)phenyl)urea]",,,50 to 100,50 to 100
"Cc1ccc(COCC(F)(F)F)c(N2C(=O)CS/C2=N\C(=O)Nc2ccc(-n3cnc(-c4ccc(C(F)(F)F)cc4)n3)cc2F)c1 [Compound J698, (Z)-1-(2-fluoro-4-(3-(4-(trifluoromethyl)phenyl)-1H-1,2,4-triazol-1-yl)phenyl)-3-(3-(5-methyl-2-((2,2,2-trifluoroethoxy)methyl)phenyl)-4-oxothiazolidin-2-ylidene)urea]",,,50 to 100,50 to 100
"O=C(/N=C1\SCC(=O)N1c1cc(F)ccc1COCC(F)(F)F)Nc1ccc(-n2cnc(-c3ccc(C(F)(F)F)cc3)n2)cc1F [Compound J699, (Z)-1-(3-(5-Fluoro-2-((2,2,2-trifluoroethoxy)methyl)phenyl)-4-oxothiazolidin-2-ylidene)-3-(2-fluoro-4-(3-(4-(trifluoromethyl)phenyl)-1H-1,2,4-triazol-1-yl)phenyl)urea]",,,50 to 100,50 to 100
"COc1ccc(COCC(F)(F)F)c(N2C(=O)CS/C2=N\C(=O)Nc2ccc(-n3cnc(-c4ccc(C(F)(F)F)cc4)n3)cc2F)c1 [Compound J700, (Z)-1-(2-Fluoro-4-(3-(4-(trifluoromethyl)phenyl)-1H-1,2,4-triazol-1-yl)phenyl)-3-(3-(5-methoxy-2-((2,2,2-trifluoroethoxy)methyl)phenyl)-4-oxothiazolidin-2-ylidene)urea]",,,50 to 100,50 to 100
"Cc1ccc(COCC(F)F)c(N2C(=O)CS/C2=N\C(=O)Nc2ccc(-n3cnc(-c4ccc(C(F)(F)F)cc4)n3)cc2F)c1 [Compound J701, (Z)-1-(3-(2-((2,2-Difluoroethoxy)methyl)-5-methylphenyl)-4-oxothiazolidin-2-ylidene)-3-(2-fluoro-4-(3-(4-(trifluoromethyl)phenyl)-1H-1,2,4-triazol-1-yl)phenyl)urea]",,,50 to 100,50 to 100
"Cc1ccc(OCCC(F)(F)F)c(N2C(=O)CS/C2=N\C(=O)Nc2ccc(-n3cnc(-c4ccc(C(F)(F)F)cc4)n3)cc2F)c1 [Compound J702, (Z)-1-(2-Fluoro-4-(3-(4-(trifluoromethyl)phenyl)-1H-1,2,4-triazol-1-yl)phenyl)-3-(3-(5-methyl-2-(3,3,3-trifluoropropoxy)phenyl)-4-oxothiazolidin-2-ylidene)urea]",,,50 to 100,50 to 100
